Values belong to the compound of their own block, whether it stands above or below them.
How the values were obtained:
canine TRPM8 = canine TRPM8 (Canis lupus familiaris, UniProt Q1A7N1); test: In Vitro Canine TRPM8 Functional Assay (Ca2+ fluorescence, icilin activation); type: cell-based; details: for IC50: HEK293 cells stably expressing canine TRPM8, icilin activation, eight-point dose-response, read-out: IC50
Outline: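 Readout is the intracellular Ca2+ fluorescence change, measured by FLIPR or FDSS, in HEK293 cells stably expressing canine TRPM8. Potency (EC50 or IC50) is fitted from eight concentrations averaged over quadruplicate wells.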

Male Sprague Dawley rats [1] = test: Chronic Constriction Injury (CCI)-Induced Model of Neuropathic Pain, Acetone-Induced Hypersensitivity; type: in vivo, rat; details: Rattus norvegicus; for inhibition in vivo at 3 mg/kg: 3 mg/kg p.o.; for inhibition in vivo at 10 mg/kg: 10 mg/kg p.o.
Description: Male Sprague Dawley rats (225-450 g; n=5-8/treatment) were used to evaluate the ability of selected compounds of the formula (I) to reverse CCI-induced cold hypersensitivity. Four loose ligatures of 4-0 chromic gut were surgically placed around the left sciatic nerve under inhalation anesthesia as described by Bennett et al (Bennett G J, Xie Y K. Pain 1988, 33(1): 87-107). Fourteen to 35 days following CCI surgery, subjects were placed in elevated observation chambers containing wire mesh floors and five applications of acetone (0.05 mL/application separated by approximately 5 minutes) were spritzed onto the plantar surface of the paw using a multidose syringe. An abrupt withdrawal or lifting of the paw was considered a positive response. The number of positive responses was recorded for each rat over the five trials. Following baseline withdrawal determinations, compounds of formula (I) are administered in an appropriate vehicle, such as hydroxypropyl-β-cyclodextrin (HP β CD), methylcellulose, Methocel, 10% Solutol, or H2O, or the like, by the appropriate route, i.p. or p.o. […] Results are presented as a percent inhibition of […], which was calculated for each subject as [1−(test compound withdrawals/pre-test withdrawals)]×100 and then averaged by treatment.

Male Sprague Dawley rats [2] = test: Reversal of Icilin-Induced Behaviors in Rats; type: in vivo; details: Rattus norvegicus, po, 1 h, 1 h post-icilin
Protocol: Male Sprague Dawley rats (225-450 g, Charles River Labs, n=4-6/treatment) were used to evaluate the ability of selected compounds of the formula (I) to reverse icilin-induced “wet-dog” shakes. Icilin was administered in PEG-400 or 10% solutol/H2O, at 1.0 or 3.0 mg/kg, i.p. and spontaneous “wet-dog” shakes (WDS) were counted 10-20 minutes post-icilin. […] Results are presented as a percent inhibition of shakes, which was calculated as [1-(test compound WDS count/vehicle WDS count)]×100.

Male Sprague Dawley rats [3] = test: Inhibition of Icilin-Induced "Wet-Dog" Shakes in Rats; type: in vivo, rat; details: Rattus norvegicus, po, 2 h, Water, 120 min pre-icilin, Na salt form
Protocol: Male Sprague Dawley rats (220-450 g, Charles River Labs, n=6-9/treatment) were used to evaluate the ability of selected compounds of the formula (I) to block icilin-induced “wet-dog” shakes (WDS). Compounds of the formula (I) were administered in an appropriate vehicle, such as hydroxypropyl-β-cyclodextrin (HPβCD), methocellulose, 10% Solutol, or H2O, or the like, by the appropriate route, i.p. or p.o., 30-120 minutes before icilin. Icilin was administered in PEG-400 or 10% solutol/H2O, at 1.0 or 3.0 mg/kg, i.p. and spontaneous “wet-dog” shakes were counted 10-20 minutes post-icilin. Results are presented as a percent inhibition of shakes, which was calculated as [1-(test compound WDS count/vehicle WDS count)]×100.

Sprague-Dawley rats = test: CFA-Induced Paw Radiant Heat Hypersensitivity; type: in vivo, rat; details: dose 10 p.o., HPbCD, treatment time 100 min, Na salt form
Protocol: Intraplantar injection of complete Freund's adjuvant (CFA) in rodents results in a long-lasting inflammatory reaction, characterized by a pronounced hypersensitivity to both thermal and mechanical stimuli. This hypersensitivity peaks between 24-72 hours following injection and can last for several weeks. To assess whether test compounds of the formula (I) reverse established hypersensitivity, a 100 μL intraplantar injection of CFA (suspended in a 1:1 emulsion of saline and heat-killed Mycobacterium tuberculosis in mineral oil) can be injected into a single hind paw of Sprague-Dawley rats (typically males ranging from 150-350 g). This paradigm also may be conducted with a multiple dosing or a prophylactic dosing regime designed to alter the course of hyperalgesia development. This test predicts the analgesic, anti-allodynic and antihyperalgesic effect of numerous effective clinical agents, including acetaminophen, NSAIDS such as aspirin and ibuprofen, and opioids, such as morphine.
Each rat is placed in a test chamber on a warm glass surface and allowed to acclimate for approximately 10 minutes. A radiant thermal stimulus (beam of light) is then focused through the glass onto the plantar surface of each hind paw in turn. The thermal stimulus is automatically shut off by a photoelectric relay when the paw is moved or when the cut-off time is reached (20 seconds for radiant heat at […]). An initial (baseline) response latency to the thermal stimulus is recorded for each animal prior to the injection of CFA. Twenty-four hours following intraplantar CFA injection, the response latency of the animal to the thermal stimulus is then re-evaluated and compared to the animal's baseline response time. […] Immediately following the post-CFA latency assessment, test compound or vehicle (usually Solutol, hydroxypropyl methylcellulose, hydroxypropyl beta-cyclodextrin or PEG-400) is administered i.p. or p.o. to rats. Post-compound treatment withdrawal latencies are assessed at fixed time intervals, typically 30, 60 and 120 minutes. The percent reversal (% R) of hypersensitivity is calculated according to the following formula: % Reversal=(Treatment Response-CFA Response)/(Baseline Response-CFA Response)×100.

Male Sprague Dawley rats [4] = test: Rightward Shift of Icilin Dose Effect Curve in Rats; type: in vivo; details: Rattus norvegicus, ip; icilin i.p., wet-dog shakes, no pretreatment; read-out: Icilin ED50, mg/kg, i.p., no pretreatment
Protocol: Male Sprague Dawley rats (200-400 g, Charles River Labs, n=6-9/treatment) were administered icilin in a suitable vehicle (e.g. PEG-400, 10% Solutol) at 0.1-30 mg/kg, i.p. Spontaneous “wet-dog” shakes were counted 10-20 minutes post-icilin in order to generate a icilin dose-effect curve. A compound of the present invention was administered orally in hydroxypropyl-β-cyclodextrin 60 minutes before icilin challenge to assess the compound's ability to inhibit spontaneous “wet-dog” shakes (WDS) produced by a range of icilin doses. The ED50 of the icilin dose-effect curve generated in the presence of TRPM8 antagonist may be compared to that generated in the presence of vehicle to determine the magnitude of rightward shift as shown below in Table 7.

[5] = po, 1 h, 10% Solutol, pretreatment 1 hr, CO2H form, read-out: Percent Inhibition
[6] = po, 2 h, Water, pretreatment 2 hr, Na salt form, read-out: Percent Inhibition

Chain of canine TRPM8 (Q1A7N1 1-1104): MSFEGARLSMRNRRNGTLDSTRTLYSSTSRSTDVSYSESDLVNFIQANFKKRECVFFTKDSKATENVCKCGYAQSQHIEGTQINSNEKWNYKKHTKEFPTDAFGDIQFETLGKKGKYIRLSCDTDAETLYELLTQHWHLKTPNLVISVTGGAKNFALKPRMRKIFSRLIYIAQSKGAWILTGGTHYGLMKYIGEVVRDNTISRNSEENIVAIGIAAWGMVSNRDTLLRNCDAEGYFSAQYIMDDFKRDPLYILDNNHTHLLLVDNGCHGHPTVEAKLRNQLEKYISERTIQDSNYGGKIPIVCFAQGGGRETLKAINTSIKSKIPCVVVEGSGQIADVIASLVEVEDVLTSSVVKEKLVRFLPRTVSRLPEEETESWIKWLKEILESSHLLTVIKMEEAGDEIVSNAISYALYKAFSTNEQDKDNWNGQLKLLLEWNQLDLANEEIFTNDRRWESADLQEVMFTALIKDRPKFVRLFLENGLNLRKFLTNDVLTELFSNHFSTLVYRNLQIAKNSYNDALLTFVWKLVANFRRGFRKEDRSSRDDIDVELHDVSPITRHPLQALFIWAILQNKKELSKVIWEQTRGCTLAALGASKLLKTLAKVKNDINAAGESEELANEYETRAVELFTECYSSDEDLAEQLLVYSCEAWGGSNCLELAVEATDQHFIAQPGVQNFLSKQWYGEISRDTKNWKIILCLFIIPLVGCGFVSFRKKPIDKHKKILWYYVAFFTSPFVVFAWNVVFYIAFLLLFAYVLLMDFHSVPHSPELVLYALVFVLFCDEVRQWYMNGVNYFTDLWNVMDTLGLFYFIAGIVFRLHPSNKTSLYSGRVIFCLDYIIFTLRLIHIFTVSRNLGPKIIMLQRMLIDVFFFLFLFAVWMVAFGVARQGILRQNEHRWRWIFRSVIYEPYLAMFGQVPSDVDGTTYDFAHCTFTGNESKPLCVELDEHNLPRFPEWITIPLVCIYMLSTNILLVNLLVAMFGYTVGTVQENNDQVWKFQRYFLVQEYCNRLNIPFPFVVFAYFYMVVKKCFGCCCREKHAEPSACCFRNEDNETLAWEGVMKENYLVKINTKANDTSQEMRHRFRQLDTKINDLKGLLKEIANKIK

IC50 (canine TRPM8): 5.7 nM
inhibition at 0.5 µM (canine TRPM8; compound at 0.5 μM, canine TRPM8, icilin activation, read-out: % Inh @ 0.5): 96%
SMILES: O=S(=O)(c1ccccc1)N(Cc1ccc(F)c(C(F)(F)F)c1)c1sc2ccccc2c1Br [Compound 177, N-(3-Bromo-benzo[b]thiophen-2-yl)-N-(4-fluoro-3-trifluoromethyl-benzyl)-benzenesulfonamide]
inhibition in vivo at 30 mg/kg (Male Sprague Dawley rats [1]; ip, 3 h, 30 mg/kg i.p., 10% Solutol, pretreatment 3 hr, CO2H form, read-out: Percent Inhibition): 60%
inhibition in vivo at 3 mg/kg (Male Sprague Dawley rats [1]; [5]): 23%
inhibition in vivo at 10 mg/kg (Male Sprague Dawley rats [1]; [5]): 49%
inhibition in vivo at 30 mg/kg (Male Sprague Dawley rats [1]; po, 1 h, 30 mg/kg p.o., 10% Solutol, pretreatment 1 hr, CO2H form, read-out: Percent Inhibition): 46%
inhibition in vivo at 100 mg/kg (Male Sprague Dawley rats [1]; po, 1 h, 100 mg/kg p.o., 10% Solutol, pretreatment 1 hr, CO2H form, read-out: Percent Inhibition): 70%
inhibition in vivo at 3 mg/kg (Male Sprague Dawley rats [2]; 3 mg/kg p.o.): 15%
inhibition in vivo at 10 mg/kg (Male Sprague Dawley rats [2]; 10 mg/kg p.o.): 53%
inhibition in vivo at 16.6 mg/kg (Male Sprague Dawley rats [2]; 16.6 mg/kg p.o.): 54%
inhibition in vivo at 30 mg/kg (Male Sprague Dawley rats [2]; 30 mg/kg p.o.): 66%
inhibition in vivo at 100 mg/kg (Male Sprague Dawley rats [2]; 100 mg/kg p.o.): 52%

IC50 (canine TRPM8): 0.8 nM
inhibition at 0.2 µM (canine TRPM8; compound at 0.2 μM, canine TRPM8, icilin activation, read-out: % Inh @ 0.2): 93%
SMILES: CC(C)(O)c1c(N(Cc2ccc(F)c(C(F)(F)F)c2)S(=O)(=O)c2ccc(C(=O)O)cc2)sc2ccccc12 [Compound 361, N-(4-Fluoro-3-trifluoromethylbenzyl)-N-(3-(1-hydroxy-1-methyl-ethyl)-benzo[b]thiophen-2-yl)-4-carboxy-benzenesulfonamide]
ED50 (Male Sprague Dawley rats [3]): 4.5 mg/kg
inhibition in vivo at 3 mg/kg (Male Sprague Dawley rats [1]; [6]): 9%
inhibition in vivo at 10 mg/kg (Male Sprague Dawley rats [1]; [6]): 17%
inhibition in vivo at 30 mg/kg (Male Sprague Dawley rats [1]; po, 2 h, 30 mg/kg p.o., Water, pretreatment 2 hr, Na salt form, read-out: Percent Inhibition): 91%
inhibition in vivo at 30 mg/kg (Male Sprague Dawley rats [1]; po, 4 h, 30 mg/kg p.o., Water, pretreatment 4 hr, Na salt form, read-out: Percent Inhibition): 74%
ED50 (Male Sprague Dawley rats [1]; po, Water, pretreatment 2 hr, Na salt form): 13 mg/kg
Percent Reversal (Sprague-Dawley rats): 28%

SMILES: O=C1NC(c2cccc([N+](=O)[O-])c2)=CCN1c1ccccc1O [Icilin, reference compound]
ED50 (Male Sprague Dawley rats [4]): 0.75 mg/kg

From patent US9434711B2 (Janssen Pharmaceutica, NV, priority 2007, dated 2016)
